# Reference: paper PMC6479519, “New Quinoline-Based Heterocycles as Anticancer Agents Targeting Bcl-2” (Molecules, 2019)
# Where two headings read alike, the source gives them in different places.
# Molecular target: T1, His-tagged Bcl-2 (Homo sapiens, UniProt P10415)
# T1 construct: gene BCL2; commercial His-tagged Bcl-2 protein (Abcam); tag kept
# Assay: competitive ELISA, His-tagged Bcl-2 vs immobilised biotinylated Bim peptide
# Assay type: binding
# Settings: read-out: ELISA IC50 (μM) ^1
# [1] = competition with Bim peptide (residues 81–106), 20 nM Bcl-2, PBS, room temperature
# T1 sequence (P10415 whole entry): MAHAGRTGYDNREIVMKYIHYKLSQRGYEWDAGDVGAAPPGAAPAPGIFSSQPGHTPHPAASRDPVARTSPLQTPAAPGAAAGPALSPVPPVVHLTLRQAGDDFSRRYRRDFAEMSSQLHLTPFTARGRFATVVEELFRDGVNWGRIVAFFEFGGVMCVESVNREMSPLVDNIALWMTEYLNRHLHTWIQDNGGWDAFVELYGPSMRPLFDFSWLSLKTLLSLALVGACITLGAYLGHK
IC50,IC50 [1],Compound
14.5 ± 1.2 µM,,O=[N+]([O-])c1ccc(Nc2nnc(-c3cc(-c4ccc(Br)cc4)nc4ccccc34)o2)cc1 [6d]
,0.15 ± 0.02 µM,COc1ccc2nc(-c3ccc(Br)cc3)cc(-c3nnc(Nc4ccc([N+](=O)[O-])cc4)o3)c2c1 [6i]
,1.93 ± 0.007 µM,Cc1ccc(Nc2nnc(-c3cc(-c4ccc(Br)cc4)nc4ccccc34)o2)cc1 [6c]
